The source of these data is patent publication US7718700B2, “Growth factor-binding compounds and methods of use” (Yale University, priority 2004, dated 2010).

One assay relates to VEGFR (Flk-1/KDR). In words: VEGF-stimulated Flk-1 tyrosine phosphorylation in Flk-1/NIH 3T3 cells. It is filed as cell-based, human. As for the experimental part: (§1) Inhibition of growth factor-dependent receptor tyrosine phosphorylation by GFBs. Starved Flk-1/KDR-overexpressing NIH 3T3 cells (Flk-1/NIH 3T3) or NIH 3T3 cells were pretreated with GFBs for 5 min before stimulation with VEGF (50 ng/ml) or PDGF-BB (10 ng/ml) for 10 min, respectively. The cells were then harvested and lysed, and proteins from the lysates were separated by SDS-PAGE and transferred to nitrocellulose. Membranes then were either immunoblotted with anti-phospho-VEGFR2 antibody (Cell Signaling Technologies, Beverly, Mass.) for activated Flk-1 or anti-phospho-tyrosine antibody (4G10, Upstate Biotechnology, Lake Placid, N.Y.) for activated PDGFR. Phosphotyrosine Flk-1 and PDGFR were quantified using a Bio-Rad Model GS-700 Imaging Densitometer (Bio-Rad Laboratories, Inc, Hercules, Calif.) (Blaskovich, M. A. et al. Nat Biotechnol, 2000, 18:1065-70).

Assay [1] relates to adult human brain endothelial cells. Nature of the assay: VEGF-dependent human brain endothelial cell migration (modified Boyden chamber). The class given is cell-based. The note with it: VEGF 20 ng/ml, 18 hours, read-out: IC50 VEGF-induced endothelial cell migration. As for the experimental part: Migration of adult human brain endothelial cells was evaluated using a modified Boyden chamber assay as described in Materials and Methods. Vehicle control (FIG. 5A) or GFB204 (FIG. 5B) was added to 2% FBS-containing medium in the outer chamber, and the number of migrated cells to the VEGF-containing lower chamber was determined after an 18-hour incubation (FIG. 5C).
Human brain endothelial cell migration assay. Migration of adult human brain endothelial cells was evaluated using a modified Boyden chamber assay (BD BioCoat Matrigel Invasion Chamber) (Papadimitriou, E. et al. Biochem Biophys Res Commun, 2001, 282:306-13). The cells were plated at 4×10^4/ml onto an 8 μm pore size membrane coated with a thin layer of Matrigel basement membrane matrix. GFB204 was added to the medium in the outer chamber and the cells were cultured for 18 hours under VEGF-dependent condition in the lower chamber (VEGF 20 ng/ml). Non-invading cells were removed from the upper surface with a cotton swab. Membrane inserts were then fixed with 4% paraformaldehyde and stained with Crystal-Violet dye. The number of cells that migrated to the undersurface of the filters, was quantified by counting the cells migrated in randomly selected microscopic fields (10×). Samples were analyzed for significant differences using a Student's t-test for independent samples.

For the next assay, the system named is PDGFR. Nature of the assay: PDGF-stimulated PDGFR tyrosine phosphorylation in NIH 3T3 cells. It is filed as cell-based, mouse. The note with it: NIH 3T3 cells; read-out: IC50 PDGFR tyrosine phosphorylation (PDGF). The protocol: as §1
The subject of assay [2] is VEGF-stimulated Erk1, Erk2, Akt and STAT3 phosphorylation. In words: VEGF-stimulated phosphorylation of Erk1/2, Akt and STAT3 in Flk-1/NIH 3T3 cells. The note with it: GFB204 10 μM. It is filed as cell-based, mouse. As for the experimental part: (§2) FIGS. 3A and 3B show the effect of GFB204 on growth factor stimulated Erk1, Erk2, Akt, and STAT3 phosphorylation. GFB204 inhibits VEGF and PDGF stimulation of Flk-1 tyrosine phosphorylation and Erk1/Erk2 phosphorylation (FIG. 3A). NIH 3T3 cells or Flk-1/NIH 3T3 cells were treated with increasing concentrations of GFB204 for 5 minutes prior to stimulation with PDGFBB (10 ng/ml) or VEGF (50 ng/ml), respectively, for 10 minutes. The cells were then lysed and processed for SDS-PAGE Western blotting with an antibody specific for phosphotyrosine-Flk-1 or anti-phosphotyrosine for PDGFR tyrosine phosphorylation or phospho-Erk1/2. GFB204 effects on growth factor-stimulated Erk1, Erk2, Akt and STAT3 phosphorylation (FIG. 3B). NIH 3T3, Flk-1/NIH 3T3, IGF-1R/NIH 3T3 or EGFR/NIH 3T3 cells were treated with GFB204 (10 μM) prior to stimulation with PDGF (NIH 3T3) VEGF (Flk-1/NIH 3T3), EGF (EGFR/NIH 3T3), bFGF (NIH 3T3) or IGF-1 (IGF-1R/NIH 3T3). The cells were then harvested and processed for SDS-PAGE Western blotting with antibodies specific for phospho-Erk1/2, phospho-Akt and phospho-STAT3.
(§3) Growth factor-mediated stimulation of phosphorylation of Erk1/2, Akt and STAT3. […]

Assay [3] has as its system IGF-1-stimulated Erk1, Erk2, Akt and STAT3 phosphorylation. In words: IGF-1-stimulated phosphorylation of Erk1/2, Akt and STAT3 in IGF-1R/NIH 3T3 cells. The class given is cell-based, mouse. The note with it: GFB204 10 μM. The protocol: as §2, §3

The structures appear in SMILES notation. “Also recorded” adds a separate entry of the source. Read-outs that look alike come from different tables or passages of the source.

For `CCCCOc1c2cc(C(=O)Nc3cc(C(=O)O)cc(C(=O)OCc4ccccc4)c3)cc1Cc1cc(C(=O)Nc3cc(C(=O)O)cc(C(=O)OCc4ccccc4)c3)cc(c1OCCCC)Cc1cc(C(=O)Nc3cc(C(=O)O)cc(C(=O)OCc4ccccc4)c3)cc(c1OCCCC)Cc1cc(C(=O)Nc3cc(C(=O)O)cc(C(=O)OCc4ccccc4)c3)cc(c1OCCCC)C2` [GFB204], the IC50 stood at 0.48 ± 0.31 µM in the assay with VEGFR (Flk-1/KDR) (VEGF 50 ng/ml stimulated Flk-1 tyrosine phosphorylation, read-out: IC50 (μM) VEGFR); 0.48 µM with VEGFR (Flk-1/KDR) (read-out: IC50 VEGFR tyrosine phosphorylation (VEGF)); 600 nM in assay [1]; 190 nM with PDGFR. Further, the “VEGF-stimulation of the phosphorylation of Erk1, Erk2, Akt and STAT3” value in assay [2] is given as “blocked; also recorded: inhibited”. In addition, the “IGF-1-stimulation of the phosphorylation of Erk1, Erk2, Akt and STAT3” value in assay [3] is “had little effect and not”.
